Measurements published in patent US7265150B1, “Carboxylic acids and carboxylic acid isosteres of N-heterocyclic compounds for vision and memory disorders” (GPI NIL Holdings Inc., priority 1998, dated 2007).
Where two headings read alike, the source gives them in different places.

Assays:
[1] = tested on: aged C57BL/6N-Nia mice; assay: Morris watermaze, spatial learning and memory in aged rodents (Example 19); format: in vivo, mouse; details: 10 mg/kg daily; retention testing after 3 weeks of dosing
Excerpt: The Morris watermaze is widely used for assessing spatial memory formation and retention in experimental animals. The test depends on the animal's ability to utilize spatial visual information in order to locate a submerged escape platform in a water tank. It is important that the tank itself be as devoid of specific visual features as possible-thus, it is always circular in shape, the sides are kept smooth and in uniform dull colors and the water is rendered opaque with nontoxic watercolor pigment or powdered milk. This is to ensure that the animal navigates only by the use of more distant visual cues, or by the use of intra-maze cues specifically provided by the experimenter. The tank is filled to a level which forces the animal to swim actively. Normal mice and rats react […] to the swimming part of the test and will climb onto, and remain on, an escape platform from which they are removed to a heated resting cage. If the platform is visible (i.e. above the surface), animals placed in the tank will quickly learn to home in on the platform and climb out onto it. […] Swim Distances (cm) were analyzed in a 7×5 ANOVA including Groups and Blocks (1-5) as factors in the analysis, treating Blocks as a repeated measure.

[2] = tested on: retinal ganglion cells and optic nerve axons; assay: Optic nerve transection, 14 or 28 day treatment, evaluated 90 days after transection (Example 6, Table I); format: in vivo, rat; details: 90 days after ONT
Excerpt: All eyes and optic nerves stumps were removed.

[3] = Clearance (Table V, Comments); format: in vitro ADME
[4] = tested on: retinal ganglion cells, optic nerve axons and myelin; assay: Retinal ischemia (FIG. 1, FIG. 2); format: in vivo, rat; details: 10 mg/kg s.c. 1 hour prior to ischemia and 10 mg/kg/day for next four days; 28 days after ischemia
Excerpt: Retinal ganglion cells were retrogradely labeled in adult rats by bilateral injection of fluorogold in their lateral geniculate nuclei. Labeled ganglion cells in the normal rat retina appear as white profiles against the dark background (FIG. 1A). Complete retinal ischemia was produced by infusing normal saline solution into the retinal vitreous cavity of each eye until the intraocular pressure exceeded arterial blood pressure. 28 days after the ischemic episode extensive degeneration of retinal ganglion cell was evidenced by massive reduction in the density of fluorogold labeled cells (FIG. 1B).

| SMILES | spatial memory performance (swim distance), retention testing, aged impaired mice vs vehicle [1] | Distal optic nerve myelin basic protein Density: shrinkage of cross sectional area ([2]; GPI 1046 14 days, compared to sham control) | Distal optic nerve myelin basic protein Density: myelin loss ([2]; GPI 1046 14 days, cross sectional area multiplied by myelin density) | Distal optic nerve myelin basic protein Density: less shrinkage of cross sectional area ([2]; GPI 1046 28 days) | Clearance [3] [µL/min] | protection of retinal ganglion cells after retinal ischemia (fluorogold labeled cells) [4] | Clearance ([3]; unit printed as μl/ml) |
| --- | --- | --- | --- | --- | --- | --- | --- |
| CCC(C)(C)C(=O)C(=O)N1CCC[C@H]1C(=O)OCCCc1cccnc1 [GPI 1046] | significantly enhanced spatial memory performance | did not protect against shrinkage of the distal stump | slightly increase the density of myelin | prevented cross sectional shrinkage | 63.5 | noticeable protection of a large proportion of the vulnerable ganglion cell population | – |
| CN(C)C(=O)N1CCC[C@H]1C(=O)SCCCc1ccccc1 [N] | – | – | – | – | – | – | 21.9 |
